Assays:
GABA receptor = conditions: Tallman et al., 1978; cited from earlier work
GABAa receptor = assay: assay for GABAa receptor activity: inhibition of 3H-RO15-1788 (3H-Flumazenil) binding to rat cortical tissue; conditions: 3H-RO15-1788 0.5 nM, 30 min at 4°
Procedure: The pharmaceutical utility of compounds of this invention are indicated by the following assay for GABAa receptor activity.
Assays are carried out as described in Thomas and Tallman (J. Bio. Chem. 156: 9838-9842, J. Neurosci. 3:433-440, 1983). Rat cortical tissue is dissected and homogenized in 25 volumes (w/v) of 0.05M Tris HCl buffer (pH 7.4 at 4° C.). The tissue homogenate is centrifuged in the cold (4°) at 20,000×g for 20'. The supernatant is decanted and the pellet is rehomogenized in the same volume of buffer and again centrifuged at 20,000×g. The supernatant is decanted and the pellet is frozen at -20° C. overnight. The pellet is then thawed and rehomogenized in 25 volumes (original wt/vol) of buffer and the procedure is carried out twice. The pellet is finally resuspended in 50 volumes (w/vol of 0.05M Tris HCl buffer (pH 7.4 at […]).
Incubations contain […] of tissue homogenate, […] of radioligand 0.5 nM (^3 H-RO15-1788 [^3 H-Flumazenil] specific activity 80 Ci/mmol), drug or blocker and buffer to a total volume of […]. Incubations are carried for 30 min at 4° then are rapidly filtered through GFB filters to separate free and bound ligand. Filters are washed twice with fresh 0.05M Tris HCl buffer (pH 7.4 at 4° C.) and counted in a liquid scintillation counter. […] diazepam is added to some tubes to determine nonspecific binding. Data are collected in triplicate determinations, averaged and % inhibition of total specific binding is calculated. Total Specific Binding=Total-Nonspecific. In some cases, the amounts of unlabeled drugs is varied and total displacement curves of binding are carried out. Data are converted to a form for the calculation of IC50 and Hill Coefficient (nH).

SMILES | Enhancement of benzodiazepine binding by GABA agonists is blocked (GABA receptor) | IC50 (GABAa receptor)
CN1CCc2cc3c(cc2[C@H]1[C@@H]1OC(=O)c2c1ccc1c2OCO1)OCO3 [(+) bicuculline] | blocked | 
CN1CCc2cc3c(cc2[C@@H]1[C@H]1OC(=O)c2c1ccc1c2OCO1)OCO3 [(-) bicuculline] | much less active | 
COc1ccc(-c2nc3c[nH]c4c(n-3c2=O)CCC4)c(F)c1 [Compound 16, 2-(2-Fluoro-4-methoxyphenyl)-cyclopent[b]imidazo[2,1-f]pyrazin-1(5H)-one] |  | 15 nM
O=c1c(-c2ccccc2F)nc2c[nH]c3c(n1-2)CCCC3 [Compound 1, 2-(2-fluorophenyl)-imidazo-[1,2-a]-6,7,8,9-tetrahydroquinoxalin-1(5H)-one] |  | 11 nM
COc1ccc(-c2nc3c[nH]c4c(n-3c2=O)CCCC4)c(F)c1 [Compound 8, 2-(2-Fluoro-4-methoxyphenyl)-imidazo-[1,2-a]-6,7,8,9-tetrahydroquinoxalin-1(5H)-one] |  | 5.4 nM
COc1ccc(-c2nc3c[nH]c4c(n-3c2=O)CCCCC4)c(F)c1 [Compound 15, 2-(2-Fluoro-4-methoxyphenyl)-cyclohept[b]imidazo[2,1-f]pyrazin-1(5H)-one] |  | 13 nM
